Laboratory results published in patent US10517294B2, “Dihydrothiophene derivatives as insecticidal compounds” (priority 2012, dated 2019).

Assays:
Format in all cases: in vivo
[1] = system: Thrips tabaci; assay: Thrips tabaci (onion thrips), sprayed sunflower leaf discs; details: foliar, 144 h, application rate 200 ppm, mixed ages on sunflower leaf discs, 6 days after infestation, read-out: control (mortality)
Description: (§1) Sunflower leaf discs were placed on agar in 24-well microtiter plates and sprayed with aqueous test solutions prepared from 10′000 ppm DMSO stock solutions. After drying the leaf discs were infested with a thrips population of mixed ages. The samples were assessed for mortality 6 days after infestation.

[2] = system: Diabrotica balteata; assay: Diabrotica balteata (corn root worm), sprayed maize sprouts; details: 96 h, application rate 200 ppm, L2 larvae on sprayed maize sprouts, 4 days after infestation, read-out: control (at least one of mortality, growth inhibition)
Description: Maize sprouts, placed on an agar layer in 24-well microtiter plates were treated with aqueous test solutions prepared from 10′000 ppm DMSO stock solutions by spraying. After drying, the plates were infested with L2 larvae (6 to 10 per well). The samples were assessed for mortality and growth inhibition 4 days after infestation. Control of Diabrotica balteata by a test sample is noted when at least one of mortality and growth inhibition is better than the untreated sample.

[3] = system: Plutella xylostella; assay: Plutella xylostella (diamond back moth), artificial diet; details: 120 h, application rate 200 ppm, L2 larvae on artificial diet, 5 days after infestation, read-out: control (at least one of mortality, growth inhibition)
Description: 24-well microtiter plates with artificial diet were treated with aqueous test solutions prepared from 10′000 ppm DMSO stock solutions by pipetting. After drying, the plates were infested with L2 larvae (10 to 15 per well). The samples were assessed for mortality and growth inhibition 5 days after infestation. Control of Plutella xyllostella by a test sample is noted when at least one of mortality and growth inhibition is better than the untreated sample.

[4] = system: Spodoptera littoralis; assay: Spodoptera littoralis (Egyptian cotton leaf worm), sprayed cotton leaf discs; details: foliar, 72 h, application rate 200 ppm, L1 larvae on cotton leaf discs, 3 days after infestation, read-out: control (at least one of mortality, anti-feedant effect, growth inhibition)
Description: Cotton leaf discs were placed on agar in 24-well microtiter plates and sprayed with aqueous test solutions prepared from 10′000 ppm DMSO stock solutions. After drying the leaf discs were infested with five L1 larvae. The samples were assessed for mortality, anti-feedant effect, and growth inhibition 3 days after infestation. Control of Spodoptera littoralis by a test sample is noted when at least one of mortality, anti-feedant effect, and growth inhibition is better than the untreated sample.

[5] = system: Tetranychus urticae; assay: Tetranychus urticae (two-spotted spider mite), sprayed bean leaf discs; details: foliar, 192 h, application rate 200 ppm, mixed ages on bean leaf discs, 8 days after infestation, read-out: control (mortality, mobile stages)
Description: as §1, with “Bean” for “Sunflower”, “discs” for “discs were placed”, “were” for “and”, “mite” for “thrips”, “(mobile stages) 8” for “6”

[6] = system: Heliothis virescens; assay: Heliothis virescens (tobacco budworm), eggs on artificial diet; details: application rate 200 ppm, eggs 0-24 h old on artificial diet, 5 days after infestation, read-out: control (at least one of egg mortality, larval mortality, growth inhibition)
Description: Eggs (0-24 h old) were placed in 24-well microtiter plates on artificial diet and treated with aqueous test solutions prepared from 10′000 ppm DMSO stock solutions by pipetting. The samples were assessed for egg mortality, larval mortality and growth inhibition 5 days after infestation. Control of Heliothis virescens by a test sample is noted when at least one of egg mortality, larval mortality and growth inhibition is better than the untreated sample.

CCN1OC[C@@H](NC(=O)c2ccc(C3=CS[C@](c4cc(Cl)cc(Cl)c4)(C(F)(F)F)C3)cc2C)C1=O [Compound D3, 4-[(2R)-2-(3,5-dichlorophenyl)-2-(trifluoromethyl)-3H-thiophen-4-yl]-N-[(4R)-2-ethyl-3-oxo-isoxazolidin-4-yl]-2-methyl-benzamide]
≥ 80%: mortality at 200 ppm [1] | mortality at 200 ppm [2] | mortality at 200 ppm [3] | percent control (mortality, anti-feedant effect or growth inhibition) at 200 ppm [4] | mortality at 200 ppm [5] | mortality at 200 ppm [6]

Cc1cc(C2=CS[C@](c3cc(Cl)cc(Cl)c3)(C(F)(F)F)C2)ccc1C(=O)N[C@H]1C[S@@+]([O-])C1 [Compound D4, 4-[(2R)-2-(3,5-dichlorophenyl)-2-(trifluoromethyl)-3H-thiophen-4-yl]-2-methyl-N-(1-oxothietan-3-yl)benzamide]
≥ 80%: mortality at 200 ppm [1] | mortality at 200 ppm [2] | mortality at 200 ppm [3] | percent control (mortality, anti-feedant effect or growth inhibition) at 200 ppm [4] | mortality at 200 ppm [5] | mortality at 200 ppm [6]
